Like-named read-outs stand apart in the source and are kept apart here.
Legend:
Assay type in all cases: cell-based
[1] = system: triple negative breast cancer cell lines; experiment: Co-administration, cell viability (Cell Titer Glo), triple negative breast cancer
Protocol: (§1) Cells were treated with a dose titration of either CB-839, an anti-cancer agent or a mixture thereof for 72 hours in growth media. At the end of the incubation, cell viability was measured using Cell Titer Glo as per manufacturer's protocol (Promega, Madison, Wis.). Cell proliferation for all compound treatments are represented as bar graphs, where luminescent output, Relative Light Units (RLU), correlates with viable cell number. Combination indices were calculated using the Calcusyn program (biosoft.com) and reported for individual mixtures of CB-839 and each agent.

H1650 NSCLC cell lines = experiment: Co-administration, cell viability, NSCLC (FIG. 26)
Protocol: as §1

[2] = system: renal cell carcinoma cell lines; experiment: Co-administration, cell viability (Cell Titer Glo), renal cell carcinoma
Protocol: as §1

[3] = system: renal clear cell carcinoma cells; experiment: Co-administration, cell viability, renal clear cell carcinoma (FIG. 25); details: combination with everolimus
Protocol: as §1

[4] = system: multiple myeloma cell lines; experiment: Co-administration, cell viability (Cell Titer Glo), multiple myeloma
Protocol: as §1

lung cancer cell lines = experiment: Co-administration, cell viability (Cell Titer Glo), lung cancer
Protocol: as §1

P493-6 (myc “on”) cells = experiment: Cell Proliferation Assay; details: read-out: Cell prolif P493 72 h IC50
Protocol: P493-6 (myc “on”) cells were maintained in growth media (RPMI-1640, 10% FBS, 2 mM glutamine, 100 units/ml Penicillin and 100 μg/ml streptomycin) at 37° C. with 5% CO2. For compound assay, P493-6 cells were plated in 96-well V-bottom plates on the day of compound addition in 50 μl of growth media at a cell density of 200,000 cells/ml (10,000 cells/well). Compounds were serially diluted in 100% DMSO at 200-times the final concentration. Compounds were diluted 100-fold into growth media and then 50 μl of this mixture was added to cell plates making the final concentration of DMSO 0.5%. Cells were incubated with compound for 72 hrs at 37° C. with 5% CO2 and analyzed for antiproliferative effects either by Cell Titer Glo (Promega) or FACS analysis using the Viacount (Millipore) kit on the Guava instrument.

With `O=C(Cc1cccc(OC(F)(F)F)c1)Nc1ccc(CCCCc2nnc(NC(=O)Cc3ccccn3)s2)nn1` [CB-839] the “interaction of CB-839 with carboplatin” value ([1]; FIG. 6, combination with carboplatin, 72 hours) was “therapeutic interaction”, the “interaction of CB-839 with cytidine analog gemcitabine” value ([1]; FIG. 7, combination with gemcitabine, 72 hours) was “additive effect” and the “interaction of CB-839 with doxorubicin” value ([1]; FIG. 8, combination with doxorubicin, 72 hours) was “therapeutic interaction”. The “interaction of CB-839 with mTOR inhibitor everolimus” value ([1]; FIG. 9, combination with everolimus, 72 hours) was “synergy”, the “interaction of CB-839 with AKT inhibitor MK2206” value ([1]; FIG. 10, combination with MK2206, 72 hours) was “synergy” and the “effect of the combination of CB-839 and erlotinib” value (H1650 NSCLC cell lines; combination with erlotinib, erlotinib-resistant model) was “enhances the anti-tumor effects of each individual compound”. For the same compound, the “interaction of CB-839 with RTK inhibitor sorafenib” value ([2]; FIG. 17, combination with sorafenib, 72 hours) was “synergy”, the “interaction of CB-839 with C-kit and pan-RTK inhibitor sunitinib” value ([2]; FIG. 18, combination with sunitinib, 72 hours) was “synergy” and the “interaction of CB-839 with pan-RTK inhibitor pazopanib” value ([2]; FIG. 19, combination with pazopanib, 72 hours) was “synergy”. For the same compound, the “interaction of CB-839 with mTOR inhibitor everolimus” value ([2]; FIG. 20, combination with everolimus, 72 hours) was “synergy”, the “interaction of CB-839 with mTOR inhibitor temsirolimus” value ([2]; FIG. 21, combination with temsirolimus, 72 hours) was “synergy” and the “interaction of CB-839 with MEK inhibitor trametinib” value ([2]; FIG. 22, combination with trametinib, 72 hours) was “synergy”. For the same compound, the “interaction of CB-839 with AKT inhibitor MK2206” value ([2]; FIG. 23, combination with MK2206, 72 hours) was “synergy”, the “interaction of CB-839 with PI3K/mTOR inhibitor BEZ235” value ([2]; FIG. 24, combination with BEZ235, 72 hours) was “therapeutic interaction” and the “effect of the combination of CB-839 and everolimus” value [3] was “synergistic antiproliferative activity”. For the same compound, the “interaction of CB-839 with vincristine” value ([4]; FIG. 1, combination with vincristine, 72 hours) was “synergy”, the “interaction of CB-839 with AKT inhibitor MK2206” value ([4]; FIG. 2, combination with MK2206, 72 hours) was “strong synergy” and the “interaction of CB-839 with mTOR inhibitor everolimus” value ([4]; FIG. 3, combination with everolimus, 72 hours) was “strong synergy”. The “interaction of CB-839 with MEK inhibitor trametinib” value ([4]; FIG. 4, combination with trametinib, 72 hours) was “strong synergy”, the “interaction of CB-839 with RTK inhibitor sorafenib” value ([4]; FIG. 5, combination with sorafenib, 72 hours) was “strong synergy” and the “interaction of CB-839 with EGFR inhibitor erlotinib” value (lung cancer cell lines; FIG. 11, combination with erlotinib, 72 hours) was “synergy”. For the same compound, the “interaction of CB-839 with MEK inhibitor trametinib” value (lung cancer cell lines; FIG. 12, combination with trametinib, 72 hours) was “synergy”, the “interaction of CB-839 with mTOR inhibitor everolimus” value (lung cancer cell lines; FIG. 13, combination with everolimus, 72 hours) was “synergy” and the “interaction of CB-839 with mTOR inhibitor temsirolimus” value (lung cancer cell lines; FIG. 14, combination with temsirolimus, 72 hours) was “synergy”. For the same compound, the “interaction of CB-839 with AKT inhibitor MK2206” value (lung cancer cell lines; FIG. 15, combination with MK2206, 72 hours) was “synergy” and the “interaction of CB-839 with PI3K/mTOR inhibitor BEZ235” value (lung cancer cell lines; FIG. 16, combination with BEZ235, 72 hours) was “synergy”.
`C#Cc1cccc(Nc2ncnc3cc(OCCOC)c(OCCOC)cc23)c1` [erlotinib, reference compound] was tested, and the “sensitivity of the cells to erlotinib” value (H1650 NSCLC cell lines; erlotinib alone) was “resistant”.
`[2H]C([2H])(CCc1nnc(N)s1)C([2H])([2H])c1ccc(NC(=O)Cc2cccc(OC(F)(F)F)c2)nn1` [Compound 726] gave an IC50 (P493-6 (myc “on”) cells; P493-6, 72 h) of 610 nM.
With `[2H]C([2H])(CCc1nnc(NC(=O)Cc2ccccn2)s1)C([2H])([2H])c1ccc(NC(=O)Cc2cccc(OC(F)(F)F)c2)nn1` [Compound 727] the IC50 (P493-6 (myc “on”) cells; 72 h) was 12 nM.
